# From patent US20150196033A1, “PESTICIDAL COMPOSITIONS AND PROCESSES RELATED THERETO” (priority 2012, published 2015)
# Read-outs that look alike come from different tables or passages of the source.
# Assays:
# [1] = test system: Corn Earworm (CEW) (Helicoverpa zea); assay: Bioassay on Corn Earworm (CEW), 128-well diet tray assay; type: in vivo; conditions: Helicoverpa zea, 168 h; for mortality at 0.5 µg/cm2: 0.5 μg/cm2 on artificial diet, read-out: Rating CEW (% Control (or Mortality)), *Tested at 0.5 μg/cm2; for mortality at 50 µg/cm2: read-out: Rating CEW (% Control (or Mortality))
# Procedure: (§1) Certain molecules disclosed in this document were tested against BAW and CEW using procedures described in the following examples. In the reporting of the results, the “BAW & CEW Rating Table” was used (See Table Section).
# Bioassays on CEW (Helicoverpa zea)
# (§2) Trays were covered with a clear self-adhesive cover and held at 25° C., 14:10 light-dark for five to seven days. Percent mortality was recorded for the larvae in each well; activity in the eight wells was then averaged. The results are indicated in the table entitled “Table ABC: Biological Results” (See Table Section).
# [2] = test system: Beet Armyworm (BAW) (Spodoptera exigua); assay: Bioassay on Beet Armyworm (BAW), 128-well diet tray assay; type: in vivo; conditions: Spodoptera exigua, 168 h, read-out: Rating BAW (% Control (or Mortality))
# Procedure: as §1
# Bioassays on BAW (Spodoptera exigua)
# as §2
# [3] = second instar larvae, five to seven days
# [4] = 50 μg/cm2 on artificial diet, second instar larvae, five to seven days
SMILES,"mortality at 0.5 µg/cm2 [1, 3]","mortality at 50 µg/cm2 [2, 4]",mortality at 50 µg/cm2 [1],mortality at 50 µg/cm2 [2],"mortality at 50 µg/cm2 [1, 4]"
Cc1cc(C)cc(N2C(=O)CS/C2=N\C(=O)Nc2ccc(-c3nnc(-c4ccc(OC(F)(F)F)cc4)o3)cc2)c1 [Molecule A104],50 to 100%,0%,–,–,–
"Cc1cccc(C)c1N/C(=N/C(=O)Nc1ccc(-c2ncn(-c3ccc(C(F)(F)F)cc3)n2)cc1)SCOC(=O)CNC(=O)OCc1ccccc1 [Molecule A8, (Z)-((N-(2,6-Dimethylphenyl)-N′-((4-(1-(4-(trifluoromethyl)phenyl)-1H-1,2,4-triazol-3-yl)phenyl)carbamoyl)carbamimidoyl)thio)methyl 2-(((benzyloxy)carbonyl)amino)acetate]",–,–,50 to 100%,50 to 100%,–
Cc1cccc(N2C(=O)CS/C2=N\C(=O)Nc2ccc(-c3ncn(-c4ccc(OC(F)(F)F)cc4)n3)cc2)c1C [Molecule A75],50 to 100%,50 to 100%,–,–,–
CC(C)c1c(F)cccc1N1C(=O)CS/C1=N\C(=O)Nc1ccc(-c2ncn(-c3ccc(OC(F)(F)F)cc3)n2)cc1 [Molecule A109],50 to 100%,50 to 100%,–,–,–
Cc1ccc(N/C(S)=N/C(=O)Nc2ccc(-c3ncn(-c4ccc(OC(F)(F)F)cc4)n3)cc2)c(C)c1 [Molecule A68],50 to 100%,50 to 100%,–,–,–
CC(C)c1c(F)cccc1N/C(S)=N/C(=O)Nc1ccc(-c2ncn(-c3ccc(OC(F)(F)F)cc3)n2)cc1 [Molecule A107],50 to 100%,50 to 100%,–,–,–
"CC(C)c1ccccc1N/C(S)=C/C(=O)Nc1ccc(-c2ncn(-c3ccc(OC(F)(F)F)cc3)n2)cc1 [Molecule A21, 3-((2-isopropylphenyl)amino)-3-thioxo-N-(4-(1-(4-(trifluoromethoxy)phenyl)-1H-1,2,4-triazol-3-yl)phenyl)propanamide]",–,50 to 100%,–,–,50 to 100%
"CC(C)c1ccccc1NC(=O)NC(=O)Nc1ccc(-c2ncn(-c3ccc(OC(F)(F)F)cc3)n2)cc1 [Molecule A13, 1-(2-isopropylphenyl)-3-[[4-[1-[4-(trifluoromethoxy)phenyl]-1,2,4-triazol-3-yl]phenyl]carbamoyl]urea]",–,50 to 100%,–,–,50 to 100%
O=C(/N=C1\SCC(=O)N1c1ccc(Cl)cc1Cl)Nc1ccc(-c2ncn(-c3ccc(OC(F)(F)F)cc3)n2)cc1 [Molecule A92],50 to 100%,50 to 100%,–,–,–
CC(C)c1cc(F)ccc1N1C(=O)CS/C1=N\C(=O)Nc1ccc(-c2ncn(-c3ccc(OC(F)(F)F)cc3)n2)cc1 [Molecule A117],50 to 100%,50 to 100%,–,–,–
CC(C)c1cccc(Cl)c1N/C(S)=N/C(=O)Nc1ccc(-c2ncn(-c3ccc(OC(F)(F)F)cc3)n2)cc1 [Molecule A81],–,50 to 100%,–,–,50 to 100%
CCc1cccc(C)c1N/C(=N\C(=O)Nc1ccc(-c2ncn(-c3ccc(OC(F)(F)F)cc3)n2)cc1)SCOC(=O)C(C)C [Molecule A55],–,50 to 100%,–,–,50 to 100%
CC(C)c1ccc(F)cc1N/C(S)=N/C(=O)Nc1ccc(-c2ncn(-c3ccc(OC(F)(F)F)cc3)n2)cc1 [Molecule A82],50 to 100%,50 to 100%,–,–,–
CC(C)C(=O)OCS/C(=N/C(=O)Nc1ccc(-c2ncn(-c3ccc(OC(F)(F)F)cc3)n2)cc1)Nc1c(Cl)cccc1Cl [Molecule A58],–,50 to 100%,–,–,50 to 100%
Cc1cccc(N/C(S)=N/C(=O)Nc2ccc(-c3ncn(-c4ccc(OC(F)(F)F)cc4)n3)cc2)c1C(C)C [Molecule A106],50 to 100%,50 to 100%,–,–,–
Cc1ccc(N2C(=O)CS/C2=N\C(=O)Nc2ccc(-c3ncn(-c4ccc(OC(F)(F)F)cc4)n3)cc2)c(C(C)C)c1 [Molecule A88],50 to 100%,50 to 100%,–,–,–
Cc1ccc(N/C(S)=N/C(=O)Nc2ccc(-c3ncn(-c4ccc(OC(F)(F)F)cc4)n3)cc2)c(C(C)C)c1 [Molecule A84],50 to 100%,50 to 100%,–,–,–
COc1ccc(Cl)cc1N1C(=O)CS/C1=N\C(=O)Nc1ccc(-c2ncn(-c3ccc(OC(F)(F)F)cc3)n2)cc1 [Molecule A111],50 to 100%,50 to 100%,–,–,–
"CC(C)c1ccccc1N1C(=O)CS/C1=N\C(=O)Nc1ccc(-c2ncn(-c3ccc(OC(F)(F)F)cc3)n2)cc1 [Molecule A19, (Z)-1-(3-(2-isopropylphenyl)-4-oxothiazolidin-2-ylidene)-3-(4-(1-(4-(trifluoromethoxy)phenyl)-1H-1,2,4-triazol-3-yl)phenyl)urea]",–,50 to 100%,–,–,50 to 100%
Cc1ccc(N/C(S)=N/C(=O)Nc2ccc(-c3ncn(-c4ccc(OC(F)(F)F)cc4)n3)cc2)c(Cl)c1 [Molecule A73],50 to 100%,50 to 100%,–,–,–

SMILES,"mortality at 0.5 µg/cm2 [1, 3]","mortality at 50 µg/cm2 [2, 4]",mortality at 50 µg/cm2 [1],mortality at 50 µg/cm2 [2],"mortality at 50 µg/cm2 [1, 4]"
Cc1ccc(Cl)cc1N/C(S)=N/C(=O)Nc1ccc(-c2ncn(-c3ccc(OC(F)(F)F)cc3)n2)cc1 [Molecule A72],50 to 100%,50 to 100%,–,–,–
CCc1ccccc1NC(=O)NC(=O)Nc1ccc(-c2ncn(-c3ccc(OC(F)(F)F)cc3)n2)cc1 [Molecule A52],–,50 to 100%,–,–,50 to 100%
Cc1ccccc1NC(=O)NC(=O)Nc1ccc(-c2ncn(-c3ccc(OC(F)(F)F)cc3)n2)cc1 [Molecule A51],–,50 to 100%,–,–,50 to 100%
CCC1CS/C(=N\C(=O)Nc2ccc(-c3ncn(-c4ccc(OC(F)(F)F)cc4)n3)cc2)N1c1c(C)cc(C)cc1C (centres unmarked) [Molecule A38],–,50 to 100%,–,–,50 to 100%
Cc1ccc(F)c(N/C(S)=N/C(=O)Nc2ccc(-c3ncn(-c4ccc(OC(F)(F)F)cc4)n3)cc2)c1 [Molecule A89],50 to 100%,50 to 100%,–,–,–
CCc1cccc(C)c1N1C(=O)CS/C1=N\C(=O)Nc1ccc(-c2ncn(-c3ccc(OC(F)(F)F)cc3)n2)cc1 [Molecule A103],50 to 100%,50 to 100%,–,–,–
CC(C)(C)c1ccccc1N/C(S)=N/C(=O)Nc1ccc(-c2ncn(-c3ccc(OC(F)(F)F)cc3)n2)cc1 [Molecule A67],50 to 100%,50 to 100%,–,–,–
"Cc1cccc(C)c1N/C(S)=C/C(=O)Nc1ccc(-c2ncn(-c3ccc(OC(F)(F)F)cc3)n2)cc1 [Molecule A23, 3-((2,6-dimethylphenyl)amino)-3-thioxo-N-(4-(1-(4-(trifluoromethoxy)phenyl)-1H-1,2,4-triazol-3-yl)phenyl)propanamide]",–,50 to 100%,–,–,50 to 100%
Cc1cc(C)c(N2CC(C)CS/C2=N\C(=O)Nc2ccc(-c3ncn(-c4ccc(OC(F)(F)F)cc4)n3)cc2)c(C)c1 (centres unmarked) [Molecule A41],–,50 to 100%,–,–,50 to 100%
CC(C)c1ccc(F)cc1N1C(=O)CS/C1=N\C(=O)Nc1ccc(-c2ncn(-c3ccc(OC(F)(F)F)cc3)n2)cc1 [Molecule A86],50 to 100%,50 to 100%,–,–,–
COc1cc(C)c(N/C(S)=N/C(=O)Nc2ccc(-c3ncn(-c4ccc(OC(F)(F)F)cc4)n3)cc2)c(C)c1 [Molecule A50],–,50 to 100%,–,–,50 to 100%
"Cc1ccccc1N/C(S)=C(\C#N)C(=O)Nc1ccc(-c2ncn(-c3ccc(OC(F)(F)F)cc3)n2)cc1 [Molecule A29, (Z)-2-Cyano-3-mercapto-3-(o-tolylamino)-N-(4-(1-(4-(trifluoromethoxy)phenyl)-1H-1,2,4-triazol-3-yl)phenyl)acrylamide]",–,0 to 50%,–,–,50 to 100%
CC(C)c1ccccc1N/C(S)=N/C(=O)Nc1ccc(-c2nnc(-c3ccc(OC(F)(F)C(F)(F)F)cc3)o2)cc1 [Molecule A96],–,50 to 100%,–,–,0%
Cc1cc(C)cc(N/C(S)=N/C(=O)Nc2ccc(-c3ncn(-c4ccc(OC(F)(F)F)cc4)n3)cc2)c1 [Molecule A100],50 to 100%,50 to 100%,–,–,–
CC(C)c1cccc(N/C(S)=N/C(=O)Nc2ccc(-c3ncn(-c4ccc(OC(F)(F)F)cc4)n3)cc2)c1 [Molecule A118],–,0%,–,–,0%
CC(C)c1ccccc1N/C(S)=N/C(=O)Nc1ccc(-c2ccn(-c3ccc(OC(F)(F)F)cc3)n2)cc1 [Molecule A114],50 to 100%,50 to 100%,–,–,–
Cc1c(F)cccc1N1C(=O)CS/C1=N\C(=O)Nc1ccc(-c2ncn(-c3ccc(OC(F)(F)F)cc3)n2)cc1 [Molecule A93],50 to 100%,50 to 100%,–,–,–
Cc1ccc(C(C)C)c(N2C(=O)CS/C2=N\C(=O)Nc2ccc(-c3ncn(-c4ccc(OC(F)(F)F)cc4)n3)cc2)c1 [Molecule A87],50 to 100%,50 to 100%,–,–,–
COc1ccc(N/C(S)=N/C(=O)Nc2ccc(-c3ncn(-c4ccc(OC(F)(F)F)cc4)n3)cc2)c(C)c1 [Molecule A98],50 to 100%,50 to 100%,–,–,–
"CC(C)c1ccccc1N1C(=O)CS/C1=C\C(=O)Nc1ccc(-c2ncn(-c3ccc(OC(F)(F)F)cc3)n2)cc1 [Molecule A24, (Z)-2-(3-(2-isopropylphenyl)-4-oxothiazolidin-2-ylidene)-N-(4-(1-(4-(trifluoromethoxy)phenyl)-1H-1,2,4-triazol-3-yl)phenyl)acetamide]",–,50 to 100%,–,–,50 to 100%
